# Patent US8192962B2, “Processes for detecting toxic substances” (Daikin Industries, Ltd., priority 2001, dated 2012)
# Test system: Detoxification protein genes
# Assay: DNA chip mRNA expression in yeast, detoxification protein genes (Table 8)
# Assay type: cell-based, Saccharomyces cerevisiae S288C
# Outline: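 Measured as treated-to-untreated fluorescence ratio on a full-genome yeast DNA chip. Cells (S288C, YPD, 25° C.) were exposed in log phase for two hours to one chemical, dosed to curb growth without killing.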
smiles,measurement,setting,value
"COc1cc(CNC(=O)CCCCC=CC(C)C)ccc1O [(12), 8-methyl-N-vanillyl-6-nonenamide]",The level of expressed mRNA in the presence of chemical substance/The level of expressed mRNA in the absence of chemical substance,yeast gene YBL064C,1.7
same,The level of expressed mRNA in the presence of chemical substance/The level of expressed mRNA in the absence of chemical substance,yeast gene YBR008C,0.8
same,The level of expressed mRNA in the presence of chemical substance/The level of expressed mRNA in the absence of chemical substance,yeast gene YBR145W,1.0
same,The level of expressed mRNA in the presence of chemical substance/The level of expressed mRNA in the absence of chemical substance,yeast gene YBR244W,0.5
same,The level of expressed mRNA in the presence of chemical substance/The level of expressed mRNA in the absence of chemical substance,yeast gene YBR293W,1.0
same,The level of expressed mRNA in the presence of chemical substance/The level of expressed mRNA in the absence of chemical substance,yeast gene YCL035C,1.5
same,The level of expressed mRNA in the presence of chemical substance/The level of expressed mRNA in the absence of chemical substance,yeast gene YCL069W,0.9
same,The level of expressed mRNA in the presence of chemical substance/The level of expressed mRNA in the absence of chemical substance,yeast gene YCR083W,1.1
same,The level of expressed mRNA in the presence of chemical substance/The level of expressed mRNA in the absence of chemical substance,yeast gene YDL100C,1.5
same,The level of expressed mRNA in the presence of chemical substance/The level of expressed mRNA in the absence of chemical substance,yeast gene YDL168W,0.6
same,The level of expressed mRNA in the presence of chemical substance/The level of expressed mRNA in the absence of chemical substance,yeast gene YDR256C,0.8
same,The level of expressed mRNA in the presence of chemical substance/The level of expressed mRNA in the absence of chemical substance,yeast gene YDR453C,0.9
same,The level of expressed mRNA in the presence of chemical substance/The level of expressed mRNA in the absence of chemical substance,yeast gene YDR513W,0.9
same,The level of expressed mRNA in the presence of chemical substance/The level of expressed mRNA in the absence of chemical substance,yeast gene YDR538W,0.7
same,The level of expressed mRNA in the presence of chemical substance/The level of expressed mRNA in the absence of chemical substance,yeast gene YEL027W,0.9
same,The level of expressed mRNA in the presence of chemical substance/The level of expressed mRNA in the absence of chemical substance,yeast gene YEL065W,1.7
same,The level of expressed mRNA in the presence of chemical substance/The level of expressed mRNA in the absence of chemical substance,yeast gene YER185W,1.1
same,The level of expressed mRNA in the presence of chemical substance/The level of expressed mRNA in the absence of chemical substance,yeast gene YFL050C,0.9
same,The level of expressed mRNA in the presence of chemical substance/The level of expressed mRNA in the absence of chemical substance,yeast gene YGL013C,1.0
same,The level of expressed mRNA in the presence of chemical substance/The level of expressed mRNA in the absence of chemical substance,yeast gene YGL254W,1.2
same,The level of expressed mRNA in the presence of chemical substance/The level of expressed mRNA in the absence of chemical substance,yeast gene YGR088W,1.1
same,The level of expressed mRNA in the presence of chemical substance/The level of expressed mRNA in the absence of chemical substance,yeast gene YGR138C,0.6
same,The level of expressed mRNA in the presence of chemical substance/The level of expressed mRNA in the absence of chemical substance,yeast gene YGR197C,1.2
same,The level of expressed mRNA in the presence of chemical substance/The level of expressed mRNA in the absence of chemical substance,yeast gene YGR209C,0.9
same,The level of expressed mRNA in the presence of chemical substance/The level of expressed mRNA in the absence of chemical substance,yeast gene YGR224W,0.6
same,The level of expressed mRNA in the presence of chemical substance/The level of expressed mRNA in the absence of chemical substance,yeast gene YHL040C,2.0
same,The level of expressed mRNA in the presence of chemical substance/The level of expressed mRNA in the absence of chemical substance,yeast gene YHL047C,2.6
same,The level of expressed mRNA in the presence of chemical substance/The level of expressed mRNA in the absence of chemical substance,yeast gene YHR008C,0.7
same,The level of expressed mRNA in the presence of chemical substance/The level of expressed mRNA in the absence of chemical substance,yeast gene YHR048W,0.9
same,The level of expressed mRNA in the presence of chemical substance/The level of expressed mRNA in the absence of chemical substance,yeast gene YHR053C,1.1
same,The level of expressed mRNA in the presence of chemical substance/The level of expressed mRNA in the absence of chemical substance,yeast gene YHR055C,1.2
same,The level of expressed mRNA in the presence of chemical substance/The level of expressed mRNA in the absence of chemical substance,yeast gene YIR002C,1.3
same,The level of expressed mRNA in the presence of chemical substance/The level of expressed mRNA in the absence of chemical substance,yeast gene YIR038C,1.1
same,The level of expressed mRNA in the presence of chemical substance/The level of expressed mRNA in the absence of chemical substance,yeast gene YJL101C,0.7
same,The level of expressed mRNA in the presence of chemical substance/The level of expressed mRNA in the absence of chemical substance,yeast gene YJR104C,0.9
same,The level of expressed mRNA in the presence of chemical substance/The level of expressed mRNA in the absence of chemical substance,yeast gene YKL026C,1.0
same,The level of expressed mRNA in the presence of chemical substance/The level of expressed mRNA in the absence of chemical substance,yeast gene YKL064W,0.7
same,The level of expressed mRNA in the presence of chemical substance/The level of expressed mRNA in the absence of chemical substance,yeast gene YKR066C,0.9
same,The level of expressed mRNA in the presence of chemical substance/The level of expressed mRNA in the absence of chemical substance,yeast gene YKR105C,0.8
same,The level of expressed mRNA in the presence of chemical substance/The level of expressed mRNA in the absence of chemical substance,yeast gene YKR106W,0.8
same,The level of expressed mRNA in the presence of chemical substance/The level of expressed mRNA in the absence of chemical substance,yeast gene YLL028W,1.3
same,The level of expressed mRNA in the presence of chemical substance/The level of expressed mRNA in the absence of chemical substance,yeast gene YLL057C,0.7
same,The level of expressed mRNA in the presence of chemical substance/The level of expressed mRNA in the absence of chemical substance,yeast gene YLL060C,1.1
same,The level of expressed mRNA in the presence of chemical substance/The level of expressed mRNA in the absence of chemical substance,yeast gene YLR043C,0.8
same,The level of expressed mRNA in the presence of chemical substance/The level of expressed mRNA in the absence of chemical substance,yeast gene YLR046C,0.8
same,The level of expressed mRNA in the presence of chemical substance/The level of expressed mRNA in the absence of chemical substance,yeast gene YML028W,1.6
same,The level of expressed mRNA in the presence of chemical substance/The level of expressed mRNA in the absence of chemical substance,yeast gene YML116W,0.5
same,The level of expressed mRNA in the presence of chemical substance/The level of expressed mRNA in the absence of chemical substance,yeast gene YMR015C,0.9
same,The level of expressed mRNA in the presence of chemical substance/The level of expressed mRNA in the absence of chemical substance,yeast gene YMR038C,0.9
same,The level of expressed mRNA in the presence of chemical substance/The level of expressed mRNA in the absence of chemical substance,yeast gene YNL239W,1.5
same,The level of expressed mRNA in the presence of chemical substance/The level of expressed mRNA in the absence of chemical substance,yeast gene YNL241C,2.0
same,The level of expressed mRNA in the presence of chemical substance/The level of expressed mRNA in the absence of chemical substance,yeast gene YNL259C,0.7
same,The level of expressed mRNA in the presence of chemical substance/The level of expressed mRNA in the absence of chemical substance,yeast gene YOL158C,0.9
same,The level of expressed mRNA in the presence of chemical substance/The level of expressed mRNA in the absence of chemical substance,yeast gene YOR031W,0.8
same,The level of expressed mRNA in the presence of chemical substance/The level of expressed mRNA in the absence of chemical substance,yeast gene YOR153W,4.0
same,The level of expressed mRNA in the presence of chemical substance/The level of expressed mRNA in the absence of chemical substance,yeast gene YOR247W,0.6
same,The level of expressed mRNA in the presence of chemical substance/The level of expressed mRNA in the absence of chemical substance,yeast gene YOR251C,0.9
same,The level of expressed mRNA in the presence of chemical substance/The level of expressed mRNA in the absence of chemical substance,yeast gene YOR273C,0.8
same,The level of expressed mRNA in the presence of chemical substance/The level of expressed mRNA in the absence of chemical substance,yeast gene YPL163C,0.9
same,The level of expressed mRNA in the presence of chemical substance/The level of expressed mRNA in the absence of chemical substance,yeast gene YPR200C,0.4
